We go through seven molecules from patent publication US20100099109A1, “Methods for Analyzing Drug Response” (NODALITY, INC., A DELAWARE CORPORATION, priority 2008, published 2010).

Entries after “also recorded” stand apart in the source; their conditions may differ. Like-named read-outs stand apart in the source and are kept apart here.

For data set [1] the following is noted: cited from earlier work.
The test system of data set [2] is U937 cell line. The data set can be described thus: Mylotarg/Nocodazole exposure, multiparameter flow cytometry of DNA damage, cell cycle and apoptosis. The conditions noted are these: 24 hours exposure. The data set is classed as cell-based. An excerpt:
ATM activity also phosphorylates Chk2 and p53. […] Cyclin B1 is produced during the G2 phase of the cell cycle and its accumulation drives the cell cycle into M phase. Therefore, low levels of Cyclin B1 mark G1 and S phases, high levels mark G2 phase, and higher levels mark M phase. Histone H3 (S28) becomes phosphorylated in M phase, making p-Histone H3(S28) a useful marker of cells in M phase and not G2. It is also possible to monitor the G2/M phases of the cell cycle by measuring the phosphorylation status of Cdk1, previously known as Cdc2, a cyclin-dependent protein kinase that controls the cell cycle entry from G2 to M phase. An inhibitory phosphorylation on Cdk1 is removed by CDC25C in the M phase transition, allowing G2 cells to be distinguished from M cells based on levels of p-Cdk1. […] Treating cells with the microtubule polymerization inhibitor Nocodazole induces cells cycle arrest in M phase without DNA damage.
(§1) The experimental measurements included forward and side scatter, the use of viability dyes (amine aqua and propidium iodide (PI)), and determination of cell cycle and apoptosis by measuring DNA content with DRAQ5. Additionally, cell cycle progression was measured by determining levels of cyclin B1, phosphorylated histone H3, and phosphorylated CDK-1. All these determinations were made in freshly thawed as well as in cultured cycling cells.
(§2) After incubation with fluorochrome-conjugated antibody panels that recognized: p-H2AX, p-Chk2, p-ATM, p-53, cleaved PARP and cleaved caspase 3, cells were processed for cytometry as described above.
(A flow cytometer gives signals particle by particle.)

For data set [3], the system named is Mylotarg refractory cell lines. The data set can be described thus: Mylotarg exposure and modulated signaling in resistant cell lines. The data set is classed as cell-based. The conditions noted are these: exposed for 5-15 minutes. The procedure: as §1, §2
(§3) Experiments were conducted in which cell lines were exposed for 5-15 minutes to growth factors and cytokines, after which cells were fixed, permeabilized and incubated with panels of fluorochrome-conjugated antibody panels that recognized intracellular signaling molecules. After processing, cells were acquired on the cytometer.

The target of data set [4] is T1, MDR1 drug pump activity in KG-1 cells (Homo sapiens, UniProt P08183).
T1 construct: KG-1 cells are included as a control since they express functional MDR-1; endogenous in cells; host or cells: KG-1 cells
T1 sequence (P08183 whole entry): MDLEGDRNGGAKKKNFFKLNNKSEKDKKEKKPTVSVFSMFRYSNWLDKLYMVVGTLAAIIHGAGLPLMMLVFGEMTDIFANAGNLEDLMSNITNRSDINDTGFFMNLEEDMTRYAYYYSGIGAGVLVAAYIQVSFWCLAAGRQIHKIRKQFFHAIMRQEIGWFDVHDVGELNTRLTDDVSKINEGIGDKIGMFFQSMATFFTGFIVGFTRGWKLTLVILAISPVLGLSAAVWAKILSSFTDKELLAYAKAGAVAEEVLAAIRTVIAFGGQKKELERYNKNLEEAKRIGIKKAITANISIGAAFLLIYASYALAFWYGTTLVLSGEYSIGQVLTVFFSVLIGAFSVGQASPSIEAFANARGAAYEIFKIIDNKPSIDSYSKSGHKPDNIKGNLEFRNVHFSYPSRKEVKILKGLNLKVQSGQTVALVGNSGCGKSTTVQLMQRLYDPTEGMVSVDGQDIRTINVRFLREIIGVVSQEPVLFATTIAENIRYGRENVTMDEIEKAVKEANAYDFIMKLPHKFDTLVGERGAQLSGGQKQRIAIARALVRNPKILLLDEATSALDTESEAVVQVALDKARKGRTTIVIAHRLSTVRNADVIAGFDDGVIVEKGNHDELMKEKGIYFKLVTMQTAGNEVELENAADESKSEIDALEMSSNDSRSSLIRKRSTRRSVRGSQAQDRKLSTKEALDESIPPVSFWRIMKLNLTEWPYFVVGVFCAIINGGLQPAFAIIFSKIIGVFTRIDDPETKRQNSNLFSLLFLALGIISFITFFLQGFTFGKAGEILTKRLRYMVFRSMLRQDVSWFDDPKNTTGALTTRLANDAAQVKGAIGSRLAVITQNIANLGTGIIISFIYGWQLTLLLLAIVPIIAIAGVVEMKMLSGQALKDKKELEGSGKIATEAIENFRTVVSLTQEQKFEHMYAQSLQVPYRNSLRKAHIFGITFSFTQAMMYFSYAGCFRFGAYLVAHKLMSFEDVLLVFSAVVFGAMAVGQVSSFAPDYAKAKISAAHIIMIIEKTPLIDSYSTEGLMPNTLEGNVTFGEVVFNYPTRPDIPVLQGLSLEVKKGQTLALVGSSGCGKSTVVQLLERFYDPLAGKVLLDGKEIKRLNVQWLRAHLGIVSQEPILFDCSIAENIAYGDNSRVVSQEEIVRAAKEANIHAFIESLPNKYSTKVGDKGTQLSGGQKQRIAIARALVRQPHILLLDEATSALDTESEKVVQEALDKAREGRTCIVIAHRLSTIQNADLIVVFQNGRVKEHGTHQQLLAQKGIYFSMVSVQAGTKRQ
The experiment in a line: Functional drug transporter assay (DIOC2(3) efflux). The data set is classed as cell-based. Conditions: Mylotarg resistant KG-1 cells; co-incubation with inhibitor. The method, then: (§4) Determination of transporter functional activity: Transporter activity is measured in subpopulations gated for CD45, CD11b, CD34, CD38, and other surface markers including drug transporters themselves. Fluorescent dyes including calcein-acetoxymethyl ester in the presence or absence of inhibitors cyclosporin or PSC-833 for MDR1, reserpine for BCRP-1 and MK571 or probenecid for MRP-1) are used to evaluate the contribution of each transporter to drug efflux
(§5) Cells are thawed, counted and resuspended at 0.222×10^6/ml in RPMI 10% FBS. This example uses 100,000 cells in 450 microliters aliquoted into 6 columns of a 96 well Deep-Well “Cell Plate”. However, the experimental setup is not limited to using 100,000 cells/condition. KG-1 cells are included as a control since they express functional MDR-1.
(§6) 10× Inhibitor or 10× Mock Solutions are prepared by the following protocols: • 10×PSC-833. Stock Conc=2 mM=2000 uM. 10× Conc=20 uM (1:100). • Combine 25 uL stock with 2475 uL DPBS/0.5% BSA • Note Final Conc DMSO=0.1% • Could likely use a range of PSC-833 Concentrations not limited to 2 uM. • This experiment uses Final Concentration of 2 uM • 10×DMSO buffer (mock) • Combine 25 uL DMSO with 2475 uL DPBS/0.5% BSA […]

Data set [5] deals with MDR1 drug pump activity in U937 cells. The data set is described as above. Format: cell-based. The conditions noted are these: Mylotarg sensitive cell line U937. The procedure: as §4, §5, §6
Data set [6] has as its system Mylotarg sensitive cell lines. The experiment in a line: Mylotarg exposure and modulated signaling in sensitive cell lines. The data set is classed as cell-based. The conditions noted are these: exposed for 5-15 minutes. The method, then: as §1, §2, §3

`Nc1ccn([C@@H]2O[C@H](CO)[C@@H](O)[C@@H]2O)c(=O)n1` [Cytarabine]: the peak plasma concentration in data set [1] (high dose, 3 g/m2) was 2 µM; in data set [1] (standard dose, 100 mg/m2) it was “approximately 40 nM”. Take `COc1cccc2c1C(=O)c1c(O)c3c(c(O)c1C2=O)C[C@@](O)(C(C)=O)C[C@@H]3O[C@H]1C[C@H](N)[C@H](O)[C@H](C)O1` [Daunorubicin]: the peak plasma concentration was 50 ng/mL in data set [1] (25 mg/m2) and 200 ng/mL in data set [1] (50 mg/m2). As for `COC(=O)Nc1nc2cc(C(=O)c3cccs3)ccc2[nH]1` [Nocodazole], the “cell cycle arrest (Cyclin B1, p-Histone H3(S28), p-Cdk1)” value in data set [2] is “arrest in M rather than G2”. Turning to `CCCCCCCCCCCCCC(=O)O[C@@H]1[C@@H](C)[C@@]2(O)[C@@H](C=C(CO)C[C@]3(O)C(=O)C(C)=C[C@@H]23)[C@@H]2C(C)(C)[C@]12OC(C)=O` [PMA, phorbol myristic acetate], the “PMA-mediated p-S6” value in data set [3] is recorded as “increase in p-S6”. For the molecule `C/C=C/C[C@@H](C)C(=O)[C@H]1C(=O)N[C@@H](C(C)C)C(=O)N(C)CC(=O)N(C)[C@@H](CC(C)C)C(=O)N[C@@H](C(C)C)C(=O)N(C)[C@@H](CC(C)C)C(=O)N[C@@H](C)C(=O)N[C@H](C)C(=O)N(C)[C@@H](CC(C)C)C(=O)N(C)[C@@H](CC(C)C)C(=O)N(C)[C@@H](C(C)C)C(=O)N1C` [PSC-833], the “effect on MDR1 drug pump activity / intracellular levels of DIOC2(3)” value in data set [4] is recorded as “blocked; also recorded: significant increase in intracellular reporter”. In addition, in data set [5], the “effect on intracellular levels of DIOC2(3)” value is on record as “no effect”. For the molecule “IL-6: cytokine modulator of JAK/STAT pathways”, the “IL-6 mediated p-Stat1” value in data set [6] is given as “increased”. Regarding “SCF: growth factor/cytokine modulator of PI3K, Ras/Raf pathways”, the “SCF-mediated p-Akt, p-Erk, and p-S6” value in data set [3] is reported as “increase”.
